Measured values taken from article PMC11542736 (Cell reports. Physical science, 2024).

Target: TrpR^WT (Escherichia coli, UniProt P0A881)
Assay: Ptrp-GFP reporter, flow cytometry
Assay type: cell-based
Conditions: 1 mM ligand, E. coli Nissle 1917 trpR knockout, 37 °C, 8 h; derepression

- Ptrp-GFP reporter, flow cytometry: IPA, IAA, and IAld
Compound: O=C(O)Cc1c[nH]c2ccccc12 [IAA, indole-3-acetic acid]
